Reference: patent US20240148747A1, “SMALL MOLECULE ACTIVATORS OF YAP TRANSCRIPTIONAL ACTIVITY FOR REGENERATIVE ORGAN REPAIR” (THE SCRIPPS RESEARCH INSTITUTE, priority 2021, published 2024)

Key:
[1] = Cytotoxicity in the TEAD-LUC activation assay; conditions: human
YAP = test: TEAD-LUC activation assay (293A-TEAD-LUC reporter); assay type: cell-based; conditions: Homo sapiens, Table 3; read-out: TEAD-LUC activation assay EC50
Description: More specifically, we used a 293A cell line harboring a stably integrated cassette containing 8 copies of the TEAD binding element upstream of luciferase (8xGTII-LUC). These cells retain responsiveness to contact inhibition-induced decreases in YAP transcriptional output.^6 The TEAD-responsive reporter assay (called 293A-TEAD-LUC throughout) was adapted to 1536-well format and then used to screen a library of ˜738k compounds for YAP-inducing activity.
Additional compounds of the present disclosure were subjected to the assay described above.

SMILES | EC50 (YAP) [µM] | IC50 [1] [µM]
O=C(NCCCn1cccc1)c1cc(-c2cccc(F)c2)on1 [Compound 9] | > 20 | > 20
O=C(NCCCn1cccc1)c1cc(-c2ccccc2)[nH]n1 [Compound 10] | > 20 | > 20
Cn1nc(C(=O)NCCCn2cccc2)cc1-c1ccccc1 [Compound 11] | > 20 | > 20
Cc1c(C(=O)NCCCn2cccc2)noc1-c1ccccc1 [Compound 18] | > 20 | > 20
N#Cc1ccc(-c2cc(C(=O)NCCCn3cccc3)no2)cc1 [Compound 20] | > 20 | > 20
O=C(NCCCn1cccc1)c1cc(-c2cccnc2)on1 [Compound 21] | > 20 | > 20
O=C(NCCCn1cccc1)c1noc(-c2ccccc2)n1 [Compound 22] | > 20 | > 20
O=C(NCCCn1ccc(-c2ccccc2)c1)c1cc(-c2ccccc2)on1 [Compound 26] | > 20 | > 20
O=C(NCCCn1cccc1)c1cc(-c2ccncc2)on1 [Compound 29] | > 20 | > 20
O=C(NCCCn1cccc1)c1noc2c1OCc1ccccc1-2 [Compound 31] | > 20 | > 20
NC(=O)c1ccc(-c2cc(C(=O)NCCCc3nccs3)no2)cc1 [Compound 32] | > 20 | > 20
O=C(NCCCc1nccs1)c1noc(-c2ccccc2)c1-c1ccccc1 [Compound 33] | > 20 | > 24
O=C(NCCCc1nccs1)c1noc2ccccc12 [Compound 34] | > 20 | > 20
O=C(NCCCc1nccs1)c1cn2ccccc2n1 [Compound 35] | > 20 | > 20

Now from value to molecule, other results behind:

EC50 (YAP) [µM] | SMILES | IC50 [1] [µM]
> 20 | O=C(NCCCn1cccc1)c1cc(-c2cccc(Cl)c2)on1 [Compound 1] | > 20
1.13 | O=C(NCCCn1cccc1)c1cc(-c2ccc(F)cc2)on1 [Compound 2] | > 20
> 20 | COc1ccc(-c2cc(C(=O)NCCCn3cccc3)no2)cc1 [Compound 3] | > 20
1.41 | O=C(NCCCn1ccc2ccccc21)c1cc(-c2ccccc2)on1 [Compound 4] | > 20
> 20 | O=C(NCCCN1CCCC1)c1cc(-c2ccccc2)on1 [Compound 5] | > 20
0.91 | O=C(NCCCNc1ccccc1)c1cc(-c2ccccc2)on1 [Compound 6] | > 20
1.13 | O=C(NCCCn1nccn1)c1cc(-c2ccccc2)on1 [Compound 7] | > 20
1.88 | O=C(NCCCCn1cccc1)c1cc(-c2ccccc2)on1 [Compound 12] | > 20
1.93 | O=C(NCCCn1ccnn1)c1cc(-c2ccccc2)on1 [Compound 14] | > 20
1.87 | O=C(NCCn1cccc1)c1cc(-c2ccccc2)on1 [Compound 15] | > 20
1.27 | O=C(NCCCn1cccc1)c1cc(-c2ccccc2F)on1 [Compound 16] | > 20
5.16 | Cc1ccn(CCCNC(=O)c2cc(-c3ccccc3)on2)c1 [Compound 19] | > 20
2.76 | CN(CCCNC(=O)c1cc(-c2ccccc2)on1)S(C)(=O)=O [Compound 24] | > 20
3.8 | O=C(NCCCc1ncco1)c1cc(-c2ccccc2)on1 [Compound 27] | > 20
1.67 | O=C(NCCCc1ncno1)c1cc(-c2ccccc2)on1 [Compound 28] | > 20
4.36 | CC(=O)N1CCN(CCCNC(=O)c2cc(-c3ccccc3)on2)CC1 [Compound 36] | > 20
15 | O=C(Nc1cccc(-c2nccs2)c1)c1cc(-c2ccccc2)on1 [Compound 37] | > 20
3.34 | O=C(NCCCN1CCN(C(=O)c2ccccc2)CC1)c1cc(-c2ccccc2)on1 [Compound 38] | > 20
